Reference: ChEMBL document CHEMBL4007412, “Design, Synthesis, and Biological Evaluation of Mitochondria-Targeted Flavone-Naphthalimide-Polyamine Conjugates with Antimetastatic Activity” (J Med Chem, 2017)
Active and inactive are the calls of the source. No cut-off for these calls is given here.

Legend:
HepG2 [1] = test: Induction of ROS generation in human HepG2 cells at 20 uM after 24 hrs in presence of CAT by DCFH-DA-staining based HCS analysis; format: functional, cell-based
SMMC-7721 [2] = test: Effect on spermine levels in human SMMC7721 cells at 20 uM after 24 hrs by HPLC analysis; format: functional, cell-based
HepG2 [3] = test: Induction of apoptosis in human HepG2 cells assessed as increase in apoptotic cells up to 20 uM after 24 hrs by AO/EB double staining based flow cytometric analysis; format: functional, cell-based
SMMC-7721 [4] = test: Effect on SSAT expression in human SMMC7721 cells at 5 to 20 uM after 24 hrs by Western blot analysis; format: functional, cell-based
HepG2 [5] = test: Effect on SSAT expression in human HepG2 cells at 5 to 20 uM after 24 hrs by Western blot analysis; format: functional, cell-based
HepG2 [6] = test: Antiproliferative activity against human HepG2 cells assessed as reduction in cell viability at 20 uM pre-treated with TOC after 48 hrs by MTT assay; format: functional, cell-based
SMMC-7721 [7] = test: Cytotoxicity against human SMMC7721 cells assessed as cell growth inhibition after 48 hrs by MTT assay; format: functional, cell-based; settings: SMMC-7721, 48 h
HepG2 [8] = test: Cytotoxicity against human HepG2 cells assessed as reduction in cell viability up to 20 uM after 24 to 72 hrs by MTT assay; format: functional, cell-based
HepG2 [9] = test: Induction of cleaved PARP expression in human HepG2 cells up to 20 uM pre-treated with NAC measured after 24 hrs by Western blot analysis; format: functional, cell-based
HepG2 [10] = test: Cytotoxicity against human HepG2 cells assessed as effect on cell viability at 5 to 10 uM after 24 hrs in presence of spermidine by MTT assay; format: functional, cell-based
[11] = Drug localization in mitochondria of human HepG2 cells at 10 uM after 8 hrs by UV-bright field microscopic analysis; format: ADME
HepG2 [12] = test: Induction of apoptosis in human HepG2 cells assessed as reduction in viable cells up to 20 uM after 24 hrs by AO/EB double staining based flow cytometric analysis; format: functional, cell-based
HepG2 [13] = test: Induction of apoptosis in human HepG2 cells assessed as early apoptotic cells at 20 uM after 24 hrs by Annexin V-FITC/propidium iodide staining based flow cytometric analysis (reference value: 2.09 %); format: functional
HepG2 [14] = test: Antiproliferative activity against human HepG2 cells assessed as reduction in cell viability at 20 uM pre-treated with NAC after 48 hrs by MTT assay; format: functional, cell-based
[15] = Cytotoxicity against human QSG7701 cells assessed as cell growth inhibition after 48 hrs by MTT assay; format: cell-based; settings: QSG7701, 48 h
HepG2 [16] = test: Induction of p53 expression in human HepG2 cells up to 20 uM pre-treated with NAC after 24 hrs by Western blot analysis relative to control; format: functional, cell-based
HepG2 [17] = test: Effect on spermidine levels in human HepG2 cells at 20 uM after 24 hrs by HPLC analysis; format: functional, cell-based
[18] = Drug localization in human HepG2 cell membranes at 10 uM after 8 hrs by DiO-staining based microscopic analysis; format: ADME
HepG2 [19] = test: Induction of apoptosis in human HepG2 cells assessed as up-regulation of caspase 3 expression up to 20 uM after 24 hrs by Western blot analysis; format: functional, cell-based
HepG2 [20] = test: Induction of apoptosis in human HepG2 cells assessed as viable cells at 20 uM after 24 hrs by Annexin V-FITC/propidium iodide staining based flow cytometric analysis (reference value: 86 %); format: functional; settings: HepG2, 24 h, read-out: Activity
SMMC-7721 [21] = test: Antiproliferative activity against human SMMC7721 cells assessed as reduction in cell viability at 20 uM pre-treated with CAT after 48 hrs by MTT assay; format: functional, cell-based
[22] = Induction of intracellular ROS generation in human QSG7701 cells at 20 uM after 8 hrs by DCFH-DA staining based HCS analysis relative to control; format: cell-based; settings: qsg7701, 8 h
HepG2 [23] = test: Effect on spermine levels in human HepG2 cells at 20 uM after 24 hrs by HPLC analysis; format: functional, cell-based
[24] = Drug uptake in human SMMC7721 cells assessed as PAT-mediated cellular uptake after 8 hrs by HCS analysis; format: ADME, cell-based
SMMC-7721 [25] = test: Effect on ODC expression in human SMMC7721 cells at 5 to 20 uM after 24 hrs by Western blot analysis; format: functional, cell-based
SMMC-7721 [26] = test: Cytotoxicity against human SMMC7721 cells assessed as reduction in cell viability up to 20 uM after 24 to 72 hrs by MTT assay; format: functional, cell-based
Mus musculus [27] = test: Toxicity in Kunming mouse xenografted with […] cells assessed as effect on liver weight index at 3 mg/kg, iv dosed every day starting from day 8 after tumor cell inoculation; format: organism-based; settings: in vivo
SMMC-7721 [28] = test: Inhibition of colony formation of human SMMC7721 cells up to 20 uM […] by crystal violet staining based colony formation assay; format: functional, cell-based
Mus musculus [29] = test: Toxicity in Kunming mouse xenografted with […] cells assessed as effect on lung weight index at 3 mg/kg, iv dosed every day starting from day 8 after tumor cell inoculation; format: organism-based; settings: in vivo
[30] = Drug uptake in human SMMC7721 cells assessed as PAT-mediated cellular uptake at 10 uM by HCS analysis; format: ADME, cell-based; settings: TDE = time-dependent effect
[31] = Cytotoxicity against human QSG7701 cells assessed as reduction in cell viability up to 20 uM after 24 to 72 hrs by MTT assay; format: cell-based
HepG2 [32] = test: Induction of ROS generation in human HepG2 cells assessed as depletion of GSH content at 20 uM after 24 hrs by GSSG assay; format: functional, cell-based

In the case of `Cl.Cl.NCCCCNCCCCN1C(=O)c2cccc3c(-c4cc(=O)c5ccccc5o4)ccc(c23)C1=O`, the Activity (HepG2 [1]) is reported as “inactive”, the Activity (SMMC-7721 [2]) is reported as “inactive” and the Activity (HepG2 [3]) is reported as “Dose-dependent effect”. The Activity (SMMC-7721 [4]) was “inactive”, the Activity (HepG2 [5]) was “inactive” and the Activity (HepG2 [6]) was “inactive”. For the same compound, the IC50 (SMMC-7721 [7]) was 14.1 µM, the Activity (HepG2 [8]) was “Active” and the Activity (HepG2 [9]) was “inactive”. For the same compound, the Activity (HepG2 [10]) was “inactive”, the Drug uptake [11] was “Active” and the Activity (HepG2 [12]) was “Dose-dependent effect”. For the same compound, the Activity (HepG2 [13]) was 26.6%, the Activity (HepG2 [14]) was “inactive” and the IC50 [15] was > 50 µM. For the same compound, the Activity (HepG2 [16]) was “inactive”, the Activity (HepG2 [17]) was “inactive” and the Drug uptake [18] was “Not Active”. For the same compound, the Activity (HepG2 [19]) was “Active”, the viability at 20 µM (HepG2 [20]) was 37.8% and the Activity (SMMC-7721 [21]) was “inactive”. For the same compound, the Activity [22] was “Non-Toxic”, the Activity (HepG2 [23]) was “inactive” and the Drug uptake [24] was “Dose-dependent effect”. The Activity (SMMC-7721 [25]) was “inactive”, the Activity (SMMC-7721 [26]) was “Active” and the Activity (Mus musculus [27]) was “Non-Toxic”. For the same compound, the Activity (SMMC-7721 [28]) was “Active”, the Activity (Mus musculus [29]) was “Non-Toxic” and the Drug uptake [30] was “Tde”. The Activity [31] was “Non-Toxic” and the Activity (HepG2 [32]) was “Active”.
